Assay results: patent US20060110341A1, “Cosmetic compositions containing Sophora alopecuroides L. extracts” (Unilever Home & Personal Care USA, Division Of Conopco, Inc., priority 2004, published 2006)

System: mushroom tyrosinase (Sigma)
Assay: Tyrosinase inhibition assay
Format: biochemical
Settings: for IC50: 0.5 mM tyrosine, pH 7.00, tyrosinase 60.5 U/mL, read-out: IC50 tyrosinase inhibition activity: components
Procedure: Determination of melanin content within each MelanoDerm was performed by absorbance measurement at 475 nm. IC50 was determined by Tyrosinase inhibition assay. […] The reaction rate in the first 6.5 min is calculated based on the absorbance change at 475 nm.

Row | Compound | tyrosinase inhibition activity (in words) | IC50 | IC50 tyrosinase inhibition activity, in brackets by weight (same value as the μM figure)
1 | C=C(C)C(CC=C(C)C)Cc1c2c(c(O)c3c1OC(c1ccc(O)cc1)C3c1cc(O)cc(O)c1)C(=O)CC(c1ccc(O)cc1O)O2 (stereo not drawn) [Alopecurone A] | showing tyrosinase inhibition activity | 9 µM | 
2 | C=C(C)C(CC=C(C)C)Cc1c2c(c(O)c3c1OC(c1ccc(O)cc1)C3c1cc(O)cc(O)c1)C(=O)CC(c1ccc(O)cc1O)O2 (stereo not drawn) [Alopecurone B] | showing tyrosinase inhibition activity | 5 µM | 
3 | Oc1ccc(O)cc1 [Hydroquinone, reference compound] |  | 36.4 µM | (4 micro-q/ml) micro-g/ml
4 | C=C(C)[C@H](CC=C(C)C)Cc1c(O)cc(O)c2c1O[C@H](c1ccc(O)cc1O)CC2=O [Sophoraflavone G] |  | 14 µM | 
5 | Sophoraflavone I |  | 15 µM | 
6 | Sophoraflavone K |  | 1 µM | 
